Tested on: human peripheral blood mononuclear cells
Test: Inhibition of LPS-stimulated TNFα release from human peripheral blood mononuclear cells (TNFα screen)
Assay type: cell-based
Settings: LPS-stimulated human PBMC, 18 hours incubation, TNFα in supernatant by ELISA
Description: Venous blood is collected from healthy volunteers and the mononuclear cells purified by centrifugation through Histopaque (Ficoll) cushions. TNFα production from these cells is stimulated by addition of lipopolysaccharide. After 18 hours incubation in the presence of LPS, the cell supernatant is removed and the concentration of TNFα in the supernatant determined by ELISA.

| Molecule | IC50 |
| --- | --- |
| CSc1cccc(Oc2ncc(F)cc2C(=O)N[C@H]2CC[C@@H](NC(=O)c3ccc(CO)cc3O)CC2)c1 [Example 2, Syn-5-Fluoro-N-[4-(2-hydroxy-4-hydroxymethyl-benzoylamino)-cyclohexyl]-2-(3-methylsulfanyl-phenoxy)-nicotinamide] | 0.6 nM |
| CSc1cccc(Oc2ncc(F)cc2C(=O)N[C@H]2CC[C@@H](NC(=O)c3cn(CCO)cn3)CC2)c1 [Example 3, Syn-5-Fluoro-N-(4-{[1-(2-hydroxy-ethyl)-1H-imidazole-4-carbonyl]-amino}-cyclohexyl)-2-(3-methylsulfanyl-phenoxy)-nicotinamide] | 1.6 nM |
| CSc1cc(Oc2ncc(F)cc2C(=O)N[C@H]2CC[C@@H](NC(=O)c3ccccc3OCCO)CC2)ccc1F [Example 9, Syn-5-Fluoro-2-(4-fluoro-3-methylsulfanyl-phenoxy)-N-{4-[2-(2-hydroxy-ethoxy)-benzoylamino]-cyclohexyl}-nicotinamide] | 0.36 nM |
| CSc1cccc(Oc2ncc(F)cc2C(=O)N[C@H]2CC[C@@H](NC(=O)c3cc(C(C)C)n(CCO)n3)CC2)c1 [Example 10, Syn-5-Fluoro-N-(4-{[1-(2-hydroxy-ethyl)-5-isopropyl-1H-pyrazole-3-carbonyl]-amino}-cyclohexyl)-2-(3-methylsulfanyl-phenoxy)-nicotinamide] | 2.5 nM |
| Syn-5-Chloro-N-{4-[2-(2-hydroxy-ethoxy)-benzoylamino]-cyclohexyl}-2-(3-methylsulfanyl-phenoxy)-nicotinamide [Example 18] | 0.15 nM |
| Syn-5-Fluoro-N-(4-{[1-(2-hydroxy-ethyl)-1H-pyrazole-3-carbonyl]-amino}-cyclohexyl)-2-(3-methylsulfanyl-phenoxy)-nicotinamide [Example 5] | 0.24 nM |
| Syn-5-Fluoro-N-(4-{[1-(2-hydroxy-ethyl)-1H-pyrazole-4-carbonyl]-amino}-cyclohexyl)-2-(3-methylsulfanyl-phenoxy)-nicotinamide [Example 7] | 4.6 nM |
| Syn-5-Fluoro-N-(4-{[1-(2-hydroxy-ethyl)-5-methyl-1H-pyrazole-3-carbonyl]-amino}-cyclohexyl)-2-(3-methylsulfanyl-phenoxy)-nicotinamide [Example 8] | 0.2 nM |
| Syn-5-Fluoro-N-{4-[2-(2-hydroxy-ethoxy)-3-methyl-benzoylamino]-cyclohexyl}-2-(3-methylsulfanyl-phenoxy)-nicotinamide [Example 13] | 0.07 nM |
| Syn-5-Fluoro-N-{4-[2-(2-hydroxy-ethoxy)-4-methyl-benzoylamino]-cyclohexyl}-2-(3-methylsulfanyl-phenoxy)-nicotinamide [Example 12] | 0.3 nM |
| Syn-5-Fluoro-N-{4-[2-(2-hydroxy-ethoxy)-5-methyl-benzoylamino]-cyclohexyl}-2-(3-methylsulfanyl-phenoxy)-nicotinamide [Example 11] | 0.8 nM |
| Syn-N-(4-{[5-Ethyl-1-(2-hydroxy-ethyl)-1H-pyrazole-3-carbonyl]-amino}-cyclohexyl)-5-fluoro-2-(3-methylsulfanyl-phenoxy)-nicotinamide [Example 17] | 0.05 nM |
| Syn-N-{4-[4-Chloro-2-(2-hydroxy-ethoxy)-benzoylamino]-cyclohexyl}-5-fluoro-2-(3-methylsulfanyl-phenoxy)-nicotinamide [Example 15] | 1.6 nM |
| Syn-N-{4-[5-Chloro-2-(2-hydroxy-ethoxy)-benzoylamino]-cyclohexyl}-5-fluoro-2-(3-methylsulfanyl-phenoxy)-nicotinamide [Example 14] | 0.6 nM |
